Results published in patent US20260097047A1, “Small molecule inhibitors of the ribosome biogenesis factor NVL2” (Board of Regents, The University of Texas System, priority 2023, published 2026).
Like-named read-outs stand apart in the source and are kept apart here.

Test system: HCT116 cells
Experiment: Cell viability assay (CellTiter-Glo, 72 hours) in HCT116 human colorectal cancer cells
Format: cell-based
Details: Homo sapiens, HCT-116, HCT116, 72 hours, read-out: Activity
Outline: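 2,000 cells/well adhered overnight, then compound added by digital dispenser with DMSO normalized to 0.5%. Viability read after 72 h at 37 °C by ATP-based CellTiter-Glo luminescence. IC50 from ten-point curves baseline-corrected to vehicle, five-parameter asymmetric least-squares fit.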

Compound	IC50 (Table 5) [nM]	IC50 (Table 6) [nM]
CC#CCN1C(=O)c2ccccc2Sc2cc(Nc3ncc(C)cc3F)ccc21 [10-(But-2-yn-1-yl)-7-((3-fluoro-5-methylpyridin-2-yl)amino)dibenzo[b,f][1,4]thiazepin-11 (10H)-one]	< 500	
CC#CCN1C(=O)c2ccccc2Sc2cc(Nc3nc(C)ccc3F)ccc21 [10-(But-2-yn-1-yl)-7-((3-fluoro-6-methylpyridin-2-yl)amino)dibenzo[b,f][1,4]thiazepin-11 (10H)-one]	< 500	
CC#CCN1C(=O)c2ccccc2Sc2cc(Nc3nccc(-c4cccnc4)n3)ccc21 [10-(But-2-yn-1-yl)-7-((4-(pyridin-3-yl)pyrimidin-2-yl)amino)dibenzo[b,f][1,4]thiazepin-11 (10H)-one]	< 500	
CC#CCN1C(=O)c2ccccc2Sc2cc(Nc3ncnc(Cl)n3)ccc21 [10-(But-2-yn-1-yl)-7-((4-chloro-1,3,5-triazin-2-yl)amino)dibenzo[b,f][1,4]thiazepin-11 (10H)-one]	1000 to 5000	
CC#CCN1C(=O)c2ccc(C#N)cc2Sc2cc(Nc3nccc(C#N)c3C)ccc21 [10-(But-2-yn-1-yl)-7-((4-cyano-3-methylpyridin-2-yl)amino)-11-oxo-10,11-dihydrodibenzo[b,f][1,4]thiazepine-3-carbonitrile]	< 500	
CC#CCN1C(=O)c2ccc(C#N)cc2Sc2cc(Nc3nnccc3C#N)ccc21 [10-(But-2-yn-1-yl)-7-((4-cyanopyridazin-3-yl)amino)-11-oxo-10,11-dihydrodibenzo[b,f][1,4]thiazepine-3-carbonitrile]	< 500	
CC#CCN1C(=O)c2ccccc2Sc2cc(NC3COCC3OC)ccc21 (centres unmarked) [10-(But-2-yn-1-yl)-7-((4-methoxytetrahydrofuran-3-yl)amino)dibenzo[b,f][1,4]thiazepin-11 (10H)-one]		< 500
CC#CCN1C(=O)c2ccccc2Sc2cc(Nc3nnccc3C)ccc21 [10-(But-2-yn-1-yl)-7-((4-methylpyridazin-3-yl)amino)dibenzo[b,f][1,4]thiazepin-11 (10H)-one]	< 500	
CC#CCN1C(=O)c2ccccc2Sc2cc(NC3COCC3C)ccc21 (centres unmarked) [10-(But-2-yn-1-yl)-7-((4-methyltetrahydrofuran-3-yl)amino)dibenzo[b,f][1,4]thiazepin-11 (10H)-one]		< 500
CC#CCN1C(=O)c2ccc(C#N)cc2Sc2cc(Nc3ncc(C#N)cc3C)ccc21 [10-(But-2-yn-1-yl)-7-((5-cyano-3-methylpyridin-2-yl)amino)-11-oxo-10,11-dihydrodibenzo[b,f][1,4]thiazepine-3-carbonitrile]	< 500	
CC#CCN1C(=O)c2ccccc2Sc2cc(Nc3cc(C)cnn3)ccc21 [10-(But-2-yn-1-yl)-7-((5-methylpyridazin-3-yl)amino)dibenzo[b,f][1,4]thiazepin-11 (10H)-one]	< 500	
CC#CCN1C(=O)c2ccccc2Sc2cc(Nc3ccc(C)nn3)ccc21 [10-(But-2-yn-1-yl)-7-((6-methylpyridazin-3-yl)amino)dibenzo[b,f][1,4]thiazepin-11 (10H)-one]	< 500	
CC#CCN1C(=O)c2ccccc2Sc2cc(NCC3(C)COC3)ccc21 [10-(But-2-yn-1-yl)-7-(((3-methyloxetan-3-yl)methyl)amino)dibenzo[b,f][1,4]thiazepin-11 (10H)-one]		< 500
CC#CCN1C(=O)c2ccccc2Sc2cc(NCC3COC3)ccc21 [10-(But-2-yn-1-yl)-7-((oxetan-3-ylmethyl)amino)dibenzo[b,f][1,4]thiazepin-11 (10H)-one]		1000 to 5000
CC#CCN1C(=O)c2ccccc2Sc2cc(NC3CCCOC3)ccc21 (centres unmarked) [10-(But-2-yn-1-yl)-7-((tetrahydro-2H-pyran-3-yl)amino)dibenzo[b,f][1,4]thiazepin-11 (10H)-one]		< 500
CC#CCN1C(=O)c2ccccc2Sc2cc(NC3CCOC3)ccc21 (centres unmarked) [10-(But-2-yn-1-yl)-7-((tetrahydrofuran-3-yl)amino)dibenzo[b,f][1,4]thiazepin-11 (10H)-one]		< 500
CC#CCN1C(=O)c2ccccc2Sc2cc(Nc3cccnn3)ccc21 [10-(But-2-yn-1-yl)-7-(pyridazin-3-ylamino)dibenzo[b,f][1,4]thiazepin-11 (10H)-one]	< 500	
CC#CCN1C(=O)c2ccccc2Sc2cc(Nc3ccnnc3)ccc21 [10-(But-2-yn-1-yl)-7-(pyridazin-4-ylamino)dibenzo[b,f][1,4]thiazepin-11 (10H)-one]	< 500	
CC#CCN1C(=O)c2ccccc2Sc2cc(Nc3ccccn3)ccc21 [10-(But-2-yn-1-yl)-7-(pyridin-2-ylamino)dibenzo[b,f][1,4]thiazepin-11 (10H)-one]	< 500	
CC#CCN1C(=O)c2ccccc2Sc2cc(Nc3cccnc3)ccc21 [10-(But-2-yn-1-yl)-7-(pyridin-3-ylamino)dibenzo[b,f][1,4]thiazepin-11 (10H)-one]	< 500	
CC#CCN1C(=O)c2ccccc2Sc2cc(Nc3ccncc3)ccc21 [10-(But-2-yn-1-yl)-7-(pyridin-4-ylamino)dibenzo[b,f][1,4]thiazepin-11 (10H)-one]	< 500	

Compound	IC50 (Table 5) [nM]	IC50 (Table 6) [nM]
CC#CCN1C(=O)c2ccccc2Sc2cc(Nc3cncnc3)ccc21 [10-(But-2-yn-1-yl)-7-(pyrimidin-5-ylamino)dibenzo[b,f][1,4]thiazepin-11 (10H)-one]	< 500	
CC#CCN1C(=O)c2ccc(C#N)cc2Sc2cc(Nc3cccnn3)ccc21 [10-(But-2-yn-1-yl)-11-oxo-7-(pyridazin-3-ylamino)-10,11-dihydrodibenzo[b,f][1,4]thiazepine-3-carbonitrile]	1000 to 5000	
CC#CCN1C(=O)c2ccccc2Sc2cc(NC3COCC3C)cnc21 (centres unmarked) [11-(But-2-yn-1-yl)-3-((4-methyltetrahydrofuran-3-yl)amino)benzo[f]pyrido[3,2-b][1,4]thiazepin-10(11H)-one]		< 500
CC#CCN1C(=O)c2ccccc2Sc2cc(NC3CCOC3)cnc21 (centres unmarked) [11-(But-2-yn-1-yl)-3-((tetrahydrofuran-3-yl)amino)benzo[f]pyrido[3,2-b][1,4]thiazepin-10(11H)-one]		< 500
CCC/C=C/CN1C(=O)c2ccccc2Sc2cc(Nc3cc(C#N)ccn3)ccc21 [(E)-2-((10-(Hex-2-en-1-yl)-11-oxo-10,11-dihydrodibenzo[b,f][1,4]thiazepin-7-yl)amino) isonicotinonitrile]	500 to 1000	
CCC/C=C/CN1C(=O)c2ccccc2Sc2cc(Nc3ncccc3C#N)ccc21 [(E)-2-((10-(Hex-2-en-1-yl)-11-oxo-10,11-dihydrodibenzo[b,f][1,4]thiazepin-7-yl)amino) nicotinonitrile]	< 500	
CCC/C=C/CN1C(=O)c2ccccc2Sc2cc(Nc3nccnc3C#N)ccc21 [(E)-3-((10-(Hex-2-en-1-yl)-11-oxo-10,11-dihydrodibenzo[b,f][1,4]thiazepin-7-yl)amino) pyrazine-2-carbonitrile]	500 to 1000	
CCC/C=C/CN1C(=O)c2ccccc2Sc2cc(Nc3ncc(C)cc3C)ccc21 [(E)-7-((3,5-Dimethylpyridin-2-yl)amino)-10-(hex-2-en-1-yl)dibenzo[b,f][1,4]thiazepin-11 (10H)-one]	< 500	
CCC/C=C/CN1C(=O)c2ccccc2Sc2cc(Nc3ncccc3F)ccc21 [(E)-7-((3-Fluoropyridin-2-yl)amino)-10-(hex-2-en-1-yl)dibenzo[b,f][1,4]thiazepin-11 (10H)-one]	< 500	
CCC/C=C/CN1C(=O)c2ccccc2Sc2cc(Nc3cc(C4CC4)ccn3)ccc21 [(E)-7-((4-Cyclopropylpyridin-2-yl)amino)-10-(hex-2-en-1-yl)dibenzo[b,f][1,4]thiazepin-11(10H)-one]	500 to 1000	
CCC/C=C/CN1C(=O)c2ccccc2Sc2cc(Nc3cc(F)ccn3)ccc21 [(E)-7-((4-Fluoropyridin-2-yl)amino)-10-(hex-2-en-1-yl)dibenzo[b,f][1,4]thiazepin-11(10H)-one]	< 500	
CCC/C=C/CN1C(=O)c2ccccc2Sc2cc(Nc3ncccc3C(F)(F)F)ccc21 [(E)-10-(Hex-2-en-1-yl)-7-((3-(trifluoromethyl)pyridin-2-yl)amino)dibenzo[b,f][1,4]thiazepin-11 (10H)-one]	500 to 1000	
CCC/C=C/CN1C(=O)c2ccccc2Sc2cc(Nc3nccnc3OC)ccc21 [(E)-10-(Hex-2-en-1-yl)-7-((3-methoxypyrazin-2-yl)amino)dibenzo[b,f][1,4]thiazepin-11 (10H)-one]	500 to 1000	
CCC/C=C/CN1C(=O)c2ccccc2Sc2cc(Nc3ncccc3OC)ccc21 [(E)-10-(Hex-2-en-1-yl)-7-((3-methoxypyridin-2-yl)amino)dibenzo[b,f][1,4]thiazepin-11 (10H)-one]	500 to 1000	
CCC/C=C/CN1C(=O)c2ccccc2Sc2cc(Nc3nccnc3C)ccc21 [(E)-10-(Hex-2-en-1-yl)-7-((3-methylpyrazin-2-yl)amino)dibenzo[b,f][1,4]thiazepin-11 (10H)-one]	< 500	
CCC/C=C/CN1C(=O)c2ccccc2Sc2cc(Nc3ncccc3C)ccc21 [(E)-10-(Hex-2-en-1-yl)-7-((3-methylpyridin-2-yl)amino)dibenzo[b,f][1,4]thiazepin-11 (10H)-one]	< 500	
CCC/C=C/CN1C(=O)c2ccccc2Sc2cc(Nc3cc(C(C)C)ccn3)ccc21 [(E)-10-(Hex-2-en-1-yl)-7-((4-isopropylpyridin-2-yl)amino)dibenzo[b,f][1,4]thiazepin-11 (10H)-one]	< 500	
CCC/C=C/CN1C(=O)c2ccccc2Sc2cc(Nc3cc(OC)ccn3)ccc21 [(E)-10-(Hex-2-en-1-yl)-7-((4-methoxypyridin-2-yl)amino)dibenzo[b,f][1,4]thiazepin-11 (10H)-one]	< 500	
CCC/C=C/CN1C(=O)c2ccccc2Sc2cc(Nc3cc(C)ccn3)ccc21 [(E)-10-(Hex-2-en-1-yl)-7-((4-methylpyridin-2-yl)amino)dibenzo[b,f][1,4]thiazepin-11 (10H)-one]	500 to 1000	
CCC/C=C/CN1C(=O)c2ccccc2Sc2cc(Nc3nccc4ccccc34)ccc21 [(E)-10-(Hex-2-en-1-yl)-7-(isoquinolin-1-ylamino)dibenzo[b,f][1,4]thiazepin-11 (10H)-one]	< 500	
